Measurements published in patent US12486269B2 (Aconcagua Bio, Inc., priority 2024, dated 2025).

Experiments:
[1] = target: T1, COS-7/AMY3 (human calcitonin receptor (CTR) and RAMP3) (Homo sapiens, UniProt O60896+P30988); test: Amylin Receptor cAMP Assay II; format: cell-based; details: values marked **: Amylin Receptor cAMP Assay II; COS-7/AMY3 cells, cAMP dynamic 2 kit, 30 min; read-out: Amylin Receptor cAMP Stimulation Activity: EC50
T1 construct: expressed in transfected cells; host or cells: COS-7
Text: AMYRs are heterodimers of the class B calcitonin (CT) G-protein-coupled receptor (CTR) and receptor activity-modifying proteins (RAMPs). All three RAMPs can interact with the CTR and form AMY1, AMY2, AMY3 with RAMP1, RAMP2 and RAMP3, respectively. Like other class B1 GPCRs, the CT receptor family is canonically coupled to Gs-mediated cAMP production, and measurement of cAMP accumulation has been the primary assay used to determine peptide selectivity and potency.
(§1) To optimize functional activity directed toward Gαs coupling, COS-7 cells were stably transfected with human calcitonin receptor (CTR) and RAMP3, simultaneously. 100×concentration of compound working solutions were prepared with 4-fold serial dilution in 384-well Echo LDV plate (Labcyte, Cat #LP-0200-BC). 200 nL/well 100×concentration of compound working solutions were moved to 384-well white microplate (Perkin Elmer, Cat #6007680) using Labcyte ECHO550. 1×10^5 cells/mL COS-7/AMY3 cell suspensions prepared with assay buffer [HBSS containing 20 mM HEPES (Gibco, Cat #15630-080), 0.5 mM IBMX (Sigma, Cat #15879) and 0.1% Casein (Sigma, Cat #C4765)], 20 μL cell suspensions were added to each well of previous generated assay plate which already contains 200 nL compound at 100×concentration using ThermoFisher Multidrop Combi (2000 cells/well). Seal the plate and incubate at 37° C. with 5% CO2 for 30 min.
(§2) After incubation, the cAMP assay signal was generated using cAMP dynamic 2 kit (Revvity, Cat #62AM4PEC). 10 μL cAMP-d2 working solution was added to each well, followed by 10 μL Anti-cAMP antibody-cryptate working solution which was added to each well using CERTUS FLEX LIQUID […]. The samples were then incubated at room temperature for 1 hour protected from light. the fluorescence was read at 665 and 615 nm with Reader PerkinElmer EnVision 2105. % Activity=100−(mean RLU of test sample−mean RLU of positive control)/(mean RLU of vehicle control−mean RLU of positive control)×100 Calcitonin Receptor (CTR) cAMP Assay

[2] = target: T2, human calcitonin receptor (CTR) (Homo sapiens, UniProt P30988); test: Calcitonin Receptor (CTR) cAMP Assay; format: cell-based; details: COS7-human CTR Clone #2 stable cell line, cAMP dynamic 2 kit, 30 min; read-out: Calcitonin Receptor cAMP Stimulation Activity: EC50
T2 construct: expressed in transfected cells; host or cells: COS-7 (COS7-human CTR Clone #2)
T2 sequence (P30988 25-474): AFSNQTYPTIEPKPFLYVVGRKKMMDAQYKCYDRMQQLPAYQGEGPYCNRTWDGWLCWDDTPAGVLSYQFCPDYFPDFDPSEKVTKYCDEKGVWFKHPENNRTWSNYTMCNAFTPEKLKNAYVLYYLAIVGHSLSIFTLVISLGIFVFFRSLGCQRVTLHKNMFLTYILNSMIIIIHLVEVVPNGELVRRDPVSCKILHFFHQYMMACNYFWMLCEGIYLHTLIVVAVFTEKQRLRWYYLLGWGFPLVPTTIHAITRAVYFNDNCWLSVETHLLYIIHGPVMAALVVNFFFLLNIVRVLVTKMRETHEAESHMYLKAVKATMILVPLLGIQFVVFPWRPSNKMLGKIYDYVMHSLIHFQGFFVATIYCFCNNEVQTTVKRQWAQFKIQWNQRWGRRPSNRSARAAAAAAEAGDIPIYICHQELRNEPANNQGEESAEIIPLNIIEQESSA
Description: as §2
The calcitonin receptor (CTR) belongs to the subfamily of GPCRs known as the secretin or ‘B’ family of GPCRs. Like other class B1 GPCRs, the CT receptor family is canonically coupled to Gs-mediated cAMP production, and measurement of cAMP accumulation has been the primary assay used to determine peptide selectivity and potency.
as §1, with “to create COS7-human CTR Clone #2 stable cell line.” for “and RAMP3, simultaneously.”, “COS7-human CTR Clone #2” for “COS-7/AMY3”
as §2, with “control)×100” for “control)×100 Calcitonin Receptor (CTR) cAMP Assay”

T1 sequence (O60896 24-148, one chain of several): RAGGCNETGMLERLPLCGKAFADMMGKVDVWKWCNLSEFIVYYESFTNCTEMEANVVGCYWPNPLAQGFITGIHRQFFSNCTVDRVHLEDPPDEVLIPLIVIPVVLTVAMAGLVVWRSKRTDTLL

Structure (SMILES) | EC50 [1] | EC50 [2]
C[C@@H](Nc1nccc2cc(-c3c4c(nc(CCc5ccc(F)cc5)c3-c3noc(=O)[nH]3)[C@@H]3CCCN3C4=O)sc12)c1ccc(F)c(F)c1 [Compound 140] | 19.1 nM | 2.13 nM
C[C@H](Nc1nccc2cc(-c3c4c(nc(CCc5ccc(F)cc5)c3-c3noc(=O)[nH]3)[C@@H]3CCCN3C4=O)sc12)c1ccc(F)c(F)c1 [Compound 141] | 711 nM | 88.8 nM
O=C1c2c(nc(CCc3ccc(F)cc3)c(-c3noc(=O)[nH]3)c2-c2cc3ccnc(NCc4ccc(F)c(Cl)c4)c3s2)[C@@H]2CCCN12 [Compound 146] | 54.1 nM | 3.18 nM
O=C1c2c(nc(CCc3ccc(F)cc3)c(-c3noc(=O)[nH]3)c2-c2cc3ccnc(NCc4ccc(Cl)c(F)c4)c3s2)[C@@H]2CCCN12 [Compound 147] | 51.9 nM | 2.8 nM
O=C1c2c(nc(CCc3ccc(F)cc3)c(-c3noc(=O)[nH]3)c2-c2cc3ccnc(NCc4ccc5c(c4)CCC5)c3s2)[C@@H]2CCCN12 [Compound 148] | 288 nM | 18.7 nM
COc1cccc2c1CC[C@H]2Nc1nccc2cc(-c3c4c(nc(CCc5ccc(F)cc5)c3-c3cc(=O)[nH]o3)[C@@H]3CCCN3C4=O)sc12 [Compound 150, 5-((S)-2-(4-fluorophenethyl)-4-(7-(((R)-4-methoxy-2,3-dihydro-1H-inden-1-yl)amino)thieno[2,3-c]pyridin-2-yl)-5-oxo-7,8,9,9a-tetrahydro-5H-pyrido[2,3-a]pyrrolizin-3-yl)isoxazol-3(2H)-one] | 25.4 nM | 1.06 nM
COc1cccc2c1CC[C@H]2Nc1nccc2cc(-c3c4c(nc(CCc5cccc(C6CCOC6)c5)c3-c3noc(=O)[nH]3)[C@@H]3CCCN3C4=O)sc12 (stereo partly drawn) [Compound 151, 3-((9aS)-4-(7-(((R)-4-methoxy-2,3-dihydro-1H-inden-1-yl)amino)thieno[2,3-c]pyridin-2-yl)-5-oxo-2-(3-(tetrahydrofuran-3-yl)phenethyl)-7,8,9,9a-tetrahydro-5H-pyrido[2,3-a]pyrrolizin-3-yl)-1,2,4-oxadiazol-5(4H)-one] | 159 nM | 22 nM
O=C1c2c(nc(CCc3ccc(F)cc3)c(-c3noc(=O)[nH]3)c2-c2ccc3nn(C4CCc5ccccc54)cc3c2)[C@@H]2CCCN12 (stereo partly shown) [Compound 152] | 5100 nM | 513 nM
O=C1c2c(nc(CCc3ccc(F)cc3)c(-c3noc(=O)[nH]3)c2-c2ccc3c(ccn3Cc3ccc(F)c(F)c3)c2)[C@@H]2CCCN12 [Compound 153] | 16.6 nM | 2.58 nM
CC(C)C1CS(=O)(=O)c2c1nc(CCC1CCOCC1)c(-c1cc(=O)[nH]o1)c2-c1cc2ccnc(N[C@@H]3CCc4ncccc43)c2s1 (stereo partly drawn) [Compound 154, 5-(7-(7-(((R)-6,7-dihydro-5H-cyclopenta[b]pyridin-5-yl)amino)thieno[2,3-c]pyridin-2-yl)-3-isopropyl-1,1-dioxido-5-(2-(tetrahydro-2H-pyran-4-yl)ethyl)-2,3-dihydrothieno[3,2-b]pyridin-6-yl)isoxazol-3(2H)-one] | 648 nM | 52.8 nM
COc1cccc2c1CC[C@H]2Nc1nccc2cc(-c3c(-c4n[nH]c(=O)o4)c(CCc4ccc(F)cc4)nc4c3c(=O)n3n4CCC3)sc12 [Compound 155] | 33.5 nM | 1.21 nM
COc1cccc2c1CC[C@H]2Nc1nccc2cc(-c3c(-c4n[nH]c(=O)o4)c(CCc4ccc(F)cc4)nc4c3S(=O)(=O)CC4C(C)C)sc12 (stereo partly drawn) [Compound 156, 5-(5-(4-fluorophenethyl)-3-isopropyl-7-(7-(((R)-4-methoxy-2,3-dihydro-1H-inden-1-yl)amino)thieno[2,3-c]pyridin-2-yl)-1,1-dioxido-2,3-dihydrothieno[3,2-b]pyridin-6-yl)-1,3,4-oxadiazol-2(3H)-one] | 55.4 nM | 2.48 nM
CC(C)C1CS(=O)(=O)c2c1nc(CCC1CCOCC1)c(-c1n[nH]c(=O)o1)c2-c1cnc2c(ccn2Cc2ccc(C#N)c(F)c2)c1 (stereo not shown) [Compound 157, 2-fluoro-4-((5-(3-isopropyl-1,1-dioxido-6-(5-oxo-4,5-dihydro-1,3,4-oxadiazol-2-yl)-5-(2-(tetrahydro-2H-pyran-4-yl)ethyl)-2,3-dihydrothieno[3,2-b]pyridin-7-yl)-1H-pyrrolo[2,3-b]pyridin-1-yl)methyl)benzonitrile] | 115 nM | 7.42 nM
N#Cc1ccc(Cn2ccc3cc(-c4c(-c5n[nH]c(=O)o5)c(CCc5ccc(F)cc5)nc5c4c(=O)n4n5CCC4)ccc32)cc1F [Compound 158, 2-fluoro-4-((5-(2-(4-fluorophenethyl)-5-oxo-3-(5-oxo-4,5-dihydro-1,3,4-oxadiazol-2-yl)-8,9-dihydro-5H,7H-pyrazolo[1′,2′:1,2]pyrazolo[3,4-b]pyridin-4-yl)-1H-indol-1-yl)methyl)benzonitrile] | 12.8 nM | 1.19 nM
CC(c1ccc(C#N)c(F)c1)n1ccc2cc(-c3c(-c4n[nH]c(=O)o4)c(CCc4ccc(F)cc4)nc4c3c(=O)n3n4CCC3)ccc21 (stereo not shown) [Compound 159, 2-fluoro-4-[1-[5-[11-[2-(4-fluorophenyl)ethyl]-7-oxo-10-(2-oxo-3H-1,3,4-oxadiazol-5-yl)-2,6,12-triazatricyclo[6.4.0.02,6]dodeca-1(8),9,11-trien-9-yl]indol-1-yl]ethyl]benzonitrile] | 28.7 nM | 1.17 nM
CC(c1ccc(C#N)cn1)n1c(=O)oc2cc(-c3c4c(nc(CCc5ccc(F)cc5)c3-c3n[nH]c(=O)o3)[C@@H]3CCCN3C4=O)ccc21 (stereo partly drawn) [Compound 160, 6-[1-[6-[(9aS)-2-[2-(4-fluorophenyl)ethyl]-5-oxo-3-(2-oxo-3H-1,3,4-oxadiazol-5-yl)-7,8,9,9a-tetrahydropyrido[2,3-a]pyrrolizin-4-yl]-2-oxo-1,3-benzoxazol-3-yl]ethyl]pyridine-3-carbonitrile] | 12.2 nM | 0.724 nM
N#Cc1ccc(Cn2ccc3cc(-c4c(-c5n[nH]c(=O)o5)c(CCc5ccc(F)cc5)nc5c4c(=O)n4n5CCC4)cnc32)cc1F [Compound 161] | 35.8 nM | 1.82 nM
